Reference: ChEMBL document CHEMBL5108031, “Novel N-(4-thiocyanatophenyl)-1H-1,2,3-triazole-4-carboxamides exhibit selective cytotoxic activity at nanomolar doses towards human leukemic T-cells” (Eur J Med Chem, 2022)
Calls of active or inactive are those of the source. The rule behind the calls is not given here.

Tests used:
THP-1 = experiment: Antiproliferative activity against human THP-1 cells incubated for 72 hrs and measured by MTT assay; assay type: functional
KB 3-1 = experiment: Antiproliferative activity against human KB 3-1 cells incubated for 72 hrs and measured by MTT assay; assay type: functional
HeLa = experiment: Antiproliferative activity against human HeLa cells incubated for 72 hrs and measured by MTT assay; assay type: functional
WM793 = experiment: Antiproliferative activity against human WM793 cells incubated for 72 hrs and measured by MTT assay; assay type: functional
MCF7 = experiment: Antiproliferative activity against human MCF7 cells incubated for 72 hrs and measured by MTT assay; assay type: functional
HEK293 = experiment: Antiproliferative activity against human HEK293 cells incubated for 72 hrs and measured by MTT assay; assay type: functional
HCT-116 [1] = experiment: Antiproliferative activity against human HCT-116 cells incubated for 72 hrs and measured by MTT assay; assay type: functional
K562 = experiment: Antiproliferative activity against human K562 cells incubated for 72 hrs and measured by MTT assay; assay type: functional
BALB/3T3 = experiment: Antiproliferative activity against mouse BALB/3T3 cells incubated for 72 hrs and measured by MTT assay; assay type: functional
A549 = experiment: Antiproliferative activity against human A549 cells incubated for 72 hrs and measured by MTT assay; assay type: functional
HaCaT = experiment: Antiproliferative activity against human HaCaT cells incubated for 72 hrs and measured by MTT assay; assay type: functional
MDA-MB-231 = experiment: Antiproliferative activity against human MDA-MB-231 cells incubated for 72 hrs and measured by MTT assay; assay type: functional
SK-OV-3 = experiment: Antiproliferative activity against human SK-OV-3 cells incubated for 72 hrs and measured by MTT assay; assay type: functional
Jurkat [2] = experiment: Antiproliferative activity against human Jurkat cells incubated for 72 hrs and measured by MTT assay; assay type: functional
HCT-116 [3] = experiment: Antiproliferative activity against p53-deficient human HCT-116 cells incubated for 72 hrs and measured by MTT assay; assay type: functional
SNB-75 = experiment: Antiproliferative activity against human SNB-75 cells; assay type: functional
HOP-92 = experiment: Antiproliferative activity against human HOP-92 cells; assay type: functional
[4] = target: DNA topoisomerase 2-alpha (Homo sapiens, UniProt P11388); experiment: Inhibition of DNA topoisomerase 2 alpha (unknown origin) measured by topoisomerase-mediated DNA relaxation assay
DNA topoisomerase 2-alpha, sequence (P11388 whole entry): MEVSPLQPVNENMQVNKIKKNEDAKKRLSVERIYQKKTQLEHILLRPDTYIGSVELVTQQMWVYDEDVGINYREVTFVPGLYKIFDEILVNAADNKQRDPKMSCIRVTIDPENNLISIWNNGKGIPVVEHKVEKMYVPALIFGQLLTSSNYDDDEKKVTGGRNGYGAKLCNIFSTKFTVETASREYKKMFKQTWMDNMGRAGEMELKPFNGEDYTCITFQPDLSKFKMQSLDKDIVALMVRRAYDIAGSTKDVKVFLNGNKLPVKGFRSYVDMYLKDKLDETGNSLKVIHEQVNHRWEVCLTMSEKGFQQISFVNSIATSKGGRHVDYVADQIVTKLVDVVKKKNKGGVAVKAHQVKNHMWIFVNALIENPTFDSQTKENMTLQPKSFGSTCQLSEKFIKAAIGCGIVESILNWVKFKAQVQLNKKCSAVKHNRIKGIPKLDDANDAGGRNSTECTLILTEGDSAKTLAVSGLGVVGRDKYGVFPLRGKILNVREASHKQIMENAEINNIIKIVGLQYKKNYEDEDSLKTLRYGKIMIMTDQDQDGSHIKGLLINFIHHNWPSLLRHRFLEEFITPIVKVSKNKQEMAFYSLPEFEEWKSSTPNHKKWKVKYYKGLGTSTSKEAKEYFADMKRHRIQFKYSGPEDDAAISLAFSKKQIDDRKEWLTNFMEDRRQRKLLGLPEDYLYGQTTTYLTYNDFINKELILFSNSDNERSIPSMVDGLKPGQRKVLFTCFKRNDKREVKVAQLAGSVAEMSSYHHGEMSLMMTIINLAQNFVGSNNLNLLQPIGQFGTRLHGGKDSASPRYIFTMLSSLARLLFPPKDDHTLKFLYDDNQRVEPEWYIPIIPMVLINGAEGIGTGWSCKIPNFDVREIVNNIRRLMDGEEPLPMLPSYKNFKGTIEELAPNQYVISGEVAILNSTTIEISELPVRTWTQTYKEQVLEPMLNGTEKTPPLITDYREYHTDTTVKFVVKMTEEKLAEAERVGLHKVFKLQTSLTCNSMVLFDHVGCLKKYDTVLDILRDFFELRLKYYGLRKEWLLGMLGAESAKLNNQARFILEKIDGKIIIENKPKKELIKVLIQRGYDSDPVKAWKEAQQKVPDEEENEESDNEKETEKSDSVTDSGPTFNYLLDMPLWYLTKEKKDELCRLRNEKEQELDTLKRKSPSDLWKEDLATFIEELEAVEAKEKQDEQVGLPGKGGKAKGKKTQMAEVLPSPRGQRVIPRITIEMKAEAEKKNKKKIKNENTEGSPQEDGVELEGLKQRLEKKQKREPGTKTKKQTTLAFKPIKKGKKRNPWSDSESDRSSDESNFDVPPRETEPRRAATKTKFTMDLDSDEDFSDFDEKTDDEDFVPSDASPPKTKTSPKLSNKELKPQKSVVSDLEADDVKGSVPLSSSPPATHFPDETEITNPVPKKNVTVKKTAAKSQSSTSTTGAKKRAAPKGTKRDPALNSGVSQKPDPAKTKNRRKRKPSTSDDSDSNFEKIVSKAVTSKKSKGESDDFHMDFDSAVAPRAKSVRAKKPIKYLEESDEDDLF

[5] = target: Heat shock protein HSP 90-alpha (Homo sapiens, UniProt P07900); experiment: Inhibition of Hsp90alpha (unknown origin)
DNA [6] = experiment: Binding affinity to DNA (unknown origin) assessed as DNA intercalation at 1 ug/ml by measuring amount of methyl green dye replaced from DNA-methyl green complex; assay type: nucleic-acid assay; conditions: Homo sapiens; dose 1.0 µg/ml
DNA [7] = experiment: Binding affinity to DNA (unknown origin) assessed as DNA intercalation at 10 ug/ml by measuring amount of methyl green dye replaced from DNA-methyl green complex; assay type: nucleic-acid assay; conditions: Homo sapiens; dose 10.0 µg/ml
DNA [8] = experiment: Binding affinity to DNA (unknown origin) assessed as DNA intercalation at 1 uM by measuring amount of methyl green dye replaced from DNA-methyl green complex; assay type: nucleic-acid assay; conditions: Homo sapiens
Jurkat [9] = experiment: Induction of apoptosis in human Jurkat cells assessed as condensed chromatin at 0.5 uM measured after 24 hrs by Hoechst 33342/propidium iodide staining based fluorescence microscopic analysis; assay type: functional, cell-based
Jurkat [10] = experiment: Induction of apoptosis in human Jurkat cells assessed as cell debris at 0.5 uM measured after 24 hrs by Hoechst 33342/propidium iodide staining based fluorescence microscopic analysis; assay type: functional
DNA [11] = experiment: Binding affinity to DNA (unknown origin) assessed as DNA intercalation at 10 uM by measuring amount of methyl green dye replaced from DNA-methyl green complex; assay type: nucleic-acid assay; conditions: Homo sapiens
Jurkat [12] = experiment: Induction of DNA damage in human Jurkat cells assessed as tail DNA at 0.5 uM measured after 24 hrs by comet assay; assay type: functional
Jurkat [13] = experiment: Induction of apoptosis in human Jurkat cells assessed as cellular membrane blebbing at 0.5 uM measured after 24 hrs by Hoechst 33342/propidium iodide staining based fluorescence microscopic analysis; assay type: functional, cell-based
Homo sapiens = species on record: Homo sapiens; experiment: Inhibition of electrophoretic mobility of Plasmid DNA pEGFPc-1 (unknown origin) incubated for 6 hrs at 1 uM and measured by agarose gel electrophoresis method
Jurkat [14] = experiment: Induction of DNA damage in human Jurkat cells assessed as olive tail moment at 0.5 uM measured after 24 hrs by comet assay; assay type: functional
Jurkat [15] = experiment: Induction of DNA damage in human Jurkat cells assessed as DNA fragmentation at 0.5 uM measured by Diphenylamine assay; assay type: functional
Jurkat [16] = experiment: Induction of apoptosis in human Jurkat cells assessed as fragmented DNA and nuclei at 0.5 uM measured after 24 hrs by Hoechst 33342/propidium iodide staining based fluorescence microscopic analysis; assay type: functional, cell-based
Jurkat [17] = experiment: Induction of apoptosis in human Jurkat cells assessed as decrease in mitochondrial membrane potential at 0.5 uM measured after 24 hrs by Rhodamine 123 fluorescence based assay; assay type: functional, cell-based
Jurkat [18] = experiment: Induction of apoptosis in human Jurkat cells assessed as appearance of apoptotic bodies at 0.5 uM measured after 24 hrs by Hoechst 33342/propidium iodide staining based fluorescence microscopic analysis; assay type: functional, cell-based

| SMILES | GI50 (THP-1) | GI50 (KB 3-1) | GI50 (HeLa) | GI50 (WM793) | GI50 (MCF7) | GI50 (HEK293) | GI50 (HCT-116 [1]) | GI50 (K562) | GI50 (BALB/3T3) | GI50 (A549) | GI50 (HaCaT) | GI50 (MDA-MB-231) | GI50 (SK-OV-3) | GI50 (Jurkat [2]) | GI50 (HCT-116 [3]) | other results |
| --- | --- | --- | --- | --- | --- | --- | --- | --- | --- | --- | --- | --- | --- | --- | --- | --- |
| CCCc1c(C(=O)Nc2ccc(SC#N)cc2)nnn1-c1ccccc1 | > 100 µM | 7.8 µM | 48.8 µM | 65.7 µM | 52 µM | > 100 µM | 42.3 µM | 1.4 µM | 96.9 µM | > 100 µM | > 100 µM | > 100 µM | 73.7 µM | 0.63 µM | 39.6 µM | – |
| Cc1ccc(-n2nnc(C(=O)Nc3cc(Cl)ccc3Cl)c2N)cc1 | – | – | – | – | – | – | – | – | – | – | – | – | – | – | – | GI50 (SNB-75): 0.58 µM; TGI (SNB-75): 5.9 µM; GI50 (HOP-92): 0.58 µM; TGI (HOP-92): 5.9 µM |
| Cc1ccc(Cl)cc1-n1nnc(C(=O)Nc2ccc(SC#N)cc2)c1C | > 100 µM | 7.8 µM | 91.3 µM | 72.8 µM | 8.4 µM | 91.2 µM | 39.6 µM | 5.7 µM | 9.9 µM | > 100 µM | > 100 µM | 44.6 µM | 81.5 µM | 0.68 µM | 8.2 µM | – |
| COCc1c(C(=O)Nc2ccc(SC#N)cc2)nnn1-c1ccc(C)cc1 | > 100 µM | 53.6 µM | > 100 µM | 93.3 µM | > 100 µM | > 100 µM | 81.2 µM | 42.5 µM | 75.7 µM | > 100 µM | > 100 µM | > 100 µM | 46.4 µM | 4.46 µM | 21.7 µM | – |
| COc1cc([C@@H]2c3cc4c(cc3[C@@H](NC(=O)c3cn(-c5ccc(Cl)cc5)nn3)[C@H]3COC(=O)[C@H]23)OCO4)cc(OC)c1OC | – | – | – | – | – | – | – | – | – | – | – | – | – | – | – | IC50 [4]: < 1 µM |
| Cc1ccc(Cl)c(-n2nnc(C(=O)Nc3ccc(SC#N)cc3)c2C)c1 | > 100 µM | 68 µM | > 100 µM | > 100 µM | > 100 µM | > 100 µM | > 100 µM | 6.6 µM | 100 µM | > 100 µM | > 100 µM | > 100 µM | 9.6 µM | 66.3 µM | > 100 µM | – |
| CCNC(=O)c1nnn(-c2cc(C(C)C)c(O)cc2O)c1-c1ccc(CN2CCOCC2)cc1 | – | – | – | – | – | – | – | – | – | – | – | – | – | – | – | IC50 [5]: < 0.005 µM |
| CC[n+]1c(-c2ccccc2)c2cc(N)ccc2c2ccc(N)cc21 | – | – | – | – | – | – | – | – | – | – | – | – | – | – | – | Activity (DNA [6]): 24.7%; Activity (DNA [7]): 46.6% |
| COc1cccc(-n2nnc(C(=O)Nc3ccc(SC#N)cc3)c2C)c1 | > 100 µM | > 100 µM | > 100 µM | > 100 µM | > 100 µM | > 100 µM | > 100 µM | 84.5 µM | > 100 µM | > 100 µM | > 100 µM | > 100 µM | 64.6 µM | > 100 µM | 39.8 µM | – |
| COc1cccc2c1C(=O)c1c(O)c3c(c(O)c1C2=O)C[C@@](O)(C(=O)CO)C[C@@H]3O[C@H]1C[C@H](N)[C@H](O)[C@H](C)O1 [DOXORUBICIN] | 23.1 µM | 0.74 µM | 0.76 µM | 0.9 µM | 0.82 µM | 0.8 µM | 0.76 µM | 0.7 µM | 0.62 µM | 1.1 µM | 0.9 µM | 0.76 µM | 8.8 µM | 0.65 µM | 0.5 µM | Activity (DNA [8]): 49.1%; Activity (Jurkat [9]): Active; Activity (Jurkat [10]): Active; Activity (DNA [11]): 54.2%; Activity (Jurkat [12]): 20.3%; Activity (Jurkat [13]): Active; inhibition (Homo sapiens): Active; Activity (Jurkat [14]): 5.4; Activity (Jurkat [15]): 64%; Activity (Jurkat [16]): Active; Activity (Jurkat [17]): Active; Activity (Jurkat [18]): Active |
| Cc1ccc(-n2nnc(C(=O)Nc3ccc(SC#N)cc3)c2C)cc1C | > 100 µM | 61 µM | > 100 µM | 72.4 µM | 72 µM | > 100 µM | > 100 µM | 9.2 µM | 9.8 µM | > 100 µM | > 100 µM | > 100 µM | > 100 µM | 0.68 µM | > 100 µM | – |
